Measurements taken from patent EP0745595A1, “3-(3-Aryloxyphenyl)-1-(substituted methyl)-s-triazine-2,4,6-oxo or thiotrione herbicidal agents” (American Cyanamid Company, priority 1995, dated 1996).

Experiments:
Assay type in all cases: in vivo
[1] = tested on: […], PRESL.; assay: Preemergence weed control under flooded paddy conditions, MOOVA (Monochoria); details: 0.500 kg/ha, preemergence, 3-4 weeks after treatment
Outline: (§1)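 Visual 0-9 score (stand, vigor, malformation, size, chlorosis, appearance vs untreated control) taken 3-4 wk after treatment. Test compounds were added into flood water (1.5-3 cm over silt loam) as 50/50 v/v aqueous/acetone, equivalent to about 0.5-0.063 kg/ha a.i.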

[2] = tested on: TRITICUM AESTIVUM, CV. APOLLO; assay: Preemergence herbicidal evaluation, TRZAWO (Wheat, Winter, CV. APOLLO); details: rated four to five weeks after treatment
Description: (§2) Results of herbicide evaluation are expressed on a rating scale (0-9). The scale is based upon a visual observation of plant stand, vigor, malformation, size, chlorosis and overall plant appearance as compared with a control.
(§3) The preemergence herbicidal activity of the test compounds of the present invention is exemplified by the following tests in which the seeds of a variety of monocotyledonous and dicotyledonous plants are separately mixed with potting soil and planted on top of approximately one inch of soil in separate pint cups. […] The treated cups are then placed on greenhouse benches, watered and cared for in accordance with conventional greenhouse procedures. From four to five weeks after treatment, the tests are terminated and each cup is examined and rated according to the rating system provided in Example 40.
(§4) The compounds evaluated are reported by compound number given in Example 40.

[3] = tested on: SETARIA VIRIDIS, (L) BEAU; assay: Postemergence herbicidal evaluation, SETVI (Foxtail, Green); design: key to SETVI rating / Herbicidal effect rating, SETVI / SETVI: 0-9 visual rating scale vs untreated control
Outline: (§5)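 Each value is a 0–9 visual rating of plant appearance compared with control, recorded 4–5 weeks after a 0.125–0.500 kg/ha spray, with multiple tests averaged.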

[4] = tested on: CYPERUS IRIA; assay: Preemergence weed control under flooded paddy conditions, CYPIR (Rice Flatsedge); details: 0.500 kg/ha, preemergence, 3-4 weeks after treatment
Outline: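 This preemergence test mimicked flooded paddy conditions: rice flatsedge propagules were sown in the upper 0.5 cm of silt loam in undrained 32 oz. containers (10.5 cm diameter), with water held 1.5 to 3 cm over the soil. After normal greenhouse care, plants were scored 0-9 for stand, vigor, malformation, size, chlorosis and appearance relative to controls.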

[5] = tested on: GLYCINE MAX(L) MERR. CV. WILLIAMS; assay: Preemergence herbicidal evaluation, GLXMAW (Soybean, Williams); details: rated four to five weeks after treatment
Outline: (§6)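 Seeds mixed with potting soil were planted on about one inch of soil in cups, then sprayed with aqueous acetone solution of test compound at about 0.125 to 0.50 kg per hectare. Plants grown under greenhouse conditions; visual rating on a 0-9 scale versus untreated control at 4-5 weeks.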

[6] = tested on: AMBROSIA ARTEMISIIFOLIA, L.; assay: Preemergence herbicidal evaluation, AMBEL (Ragweed, Common); details: rated four to five weeks after treatment
Outline: as §6

[7] = tested on: AMBROSIA ARTEMISIIFOLIA, L.; assay: Postemergence herbicidal evaluation, AMBEL (Ragweed, Common)
Outline: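 Postemergence herbicidal activity on AMBEL (common ragweed) was assessed on two-week-old seedlings grown in jiffy flats. Treatment solutions of 50/50 acetone/water with 0.5% TWEEN®20 surfactant were sprayed at 40 psi. After four to five weeks in the greenhouse, plants were scored 0-9 against a control for stand, vigor, malformation, size, chlorosis and overall appearance, with multiple tests averaged.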

[8] = tested on: ABUTILON THEOPHRASTI, MEDIC.; assay: Preemergence herbicidal evaluation, ABUTH (Velvetleaf); details: rated four to five weeks after treatment
Description: as §2, §3, §4

[9] = tested on: SAGITTARIA PYGMAEA, L.; assay: Preemergence weed control under flooded paddy conditions, SAGPY (Arrowhead (Pygmaea)); details: 0.500 kg/ha, preemergence, 3-4 weeks after treatment
Outline: as §1

[10] = tested on: CASSIA OBTUSIFOLIA, L.; assay: Preemergence herbicidal evaluation, CASOB (Sicklepod); details: rated four to five weeks after treatment
Outline: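 Preemergence herbicidal activity against sicklepod was assessed by planting seed mixed with potting soil atop about one inch of soil in pint cups. After treatment the cups were watered and handled per standard greenhouse practice. Tests ended four to five weeks later, with plant stand, vigor, malformation, size, chlorosis and overall appearance scored 0-9 relative to a control.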

[11] = tested on: CYPERUS SEROTINUS, ROTTB.; assay: Preemergence weed control under flooded paddy conditions, CYPSE (Flatsedge); details: 0.500 kg/ha, preemergence, 3-4 weeks after treatment
Outline: as §1

[12] = tested on: ECHINOCHLOA CRUS-GALLI, (L) BEAU; assay: Preemergence herbicidal evaluation, ECHCG (Barnyardgrass); details: rated four to five weeks after treatment
Outline: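 In this preemergence herbicide test, cups holding seeds of ECHCG sown in potting soil over roughly one inch of soil were treated and then grown under conventional greenhouse care. Tests were ended four to five weeks after treatment, and injury was scored 0-9 from stand, vigor, malformation, size, chlorosis and overall appearance relative to a control.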

[13] = tested on: CASSIA OBTUSIFOLIA, L.; assay: Postemergence herbicidal evaluation, CASOB (Sicklepod); design: key to CASOB rating / Herbicidal effect rating, CASOB / CASOB: 0-9 visual rating scale vs untreated control
Outline: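 Ratings (0-9) reflect visual stand, vigor, malformation, size and chlorosis compared with untreated plants, assessed 4-5 weeks after postemergence spraying. Treatment was applied to roughly two-week-old seedlings at about 0.125-0.500 kg/ha in acetone/water with 0.5% Tween 20; replicate tests were averaged.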

[14] = tested on: ORYZA SATIVA, L. TEBONNET; assay: Rice tolerance to post-transplant applications under flooded paddy conditions, ORYSAT (Rice, Tebonnet); details: 0.500 kg/ha, post-transplant rice, 3-4 weeks after treatment
Outline: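 Visual 0-9 rating against untreated control (stand, vigor, malformation, size, chlorosis, overall appearance), taken 3-4 weeks after treatment. Flooded silt loam, water at 1.5-3 cm; two 10-day-old seedlings per pot; compound applied to flooded soil surface 3 days post-transplant at ~0.5-0.063 kg/ha.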

[15] = tested on: ECHINOCHLOA ORYZOIDES (ARD.)FRITSCH; assay: Preemergence weed control under flooded paddy conditions, ECHORC (Watergrass (Calif.)); details: 0.500 kg/ha, preemergence, 3-4 weeks after treatment
Outline: as §1

[16] = tested on: IPOMOEA SPP.; assay: Preemergence herbicidal evaluation, IPOSS (Morningglory spp.); details: rated four to five weeks after treatment
Description: as §2, §3, §4

[17] = tested on: ECHINOCHLOA CRUS-GALLI, (L) BEAU; assay: Postemergence herbicidal evaluation, ECHCG (Barnyardgrass); design: key to ECHCG rating / Herbicidal effect rating, ECHCG / ECHCG: 0-9 visual rating scale vs untreated control
Outline: as §5

[18] = tested on: SETARIA VIRIDIS, (L) BEAU; assay: Preemergence herbicidal evaluation, SETVI (Foxtail, Green); details: rated four to five weeks after treatment
Description: as §2, §3, §4

In the case of Cn1c(=O)n(CC(N)=O)c(=O)n(-c2cccc(Oc3ccc(C(F)(F)F)cc3Cl)c2)c1=O [Compound 46, 3-{5-[(2-Chloro-α,α,α-trifluoro-p-tolyl)-oxy]phenyl}tetrahydro-5-methyl-2,4,6-trioxo-s-triazine-1(2H)-acetamide], the “Herbicidal effect rating, MOOVA” value [1] is reported as 0.0, the TRZAWO herbicidal rating ([2]; Rate 0.125 kg/ha) is reported as 1.0 and the TRZAWO herbicidal rating ([2]; Rate 0.250 kg/ha) is reported as 1.0. It also gave a TRZAWO herbicidal rating ([2]; Rate 0.500 kg/ha) of 1.0, an SETVI rating ([3]; Rate 0.125 kg/ha) of 0.0 and an SETVI rating ([3]; Rate 0.250 kg/ha) of 0.0. For the same compound, the SETVI rating ([3]; Rate 0.500 kg/ha) was 0.0, the “Herbicidal effect rating, CYPIR” value [4] was 0.0 and the GLXMAW herbicidal rating ([5]; Rate 0.125 kg/ha) was 1.0. The GLXMAW herbicidal rating ([5]; Rate 0.250 kg/ha) was 1.0, the GLXMAW herbicidal rating ([5]; Rate 0.500 kg/ha) was 1.0 and the AMBEL herbicidal rating ([6]; Rate 0.125 kg/ha) was 0.0. It also gave an AMBEL herbicidal rating ([6]; Rate 0.250 kg/ha) of 0.0, an AMBEL herbicidal rating ([6]; Rate 0.500 kg/ha) of 0.0 and an AMBEL rating ([7]; Rate 0.125 kg/ha) of 0.0. The AMBEL rating ([7]; Rate 0.250 kg/ha) was 0.0, the AMBEL rating ([7]; Rate 0.500 kg/ha) was 0.0 and the ABUTH herbicidal rating ([8]; Rate 0.125 kg/ha) was 0.0. For the same compound, the ABUTH herbicidal rating ([8]; Rate 0.250 kg/ha) was 0.0, the ABUTH herbicidal rating ([8]; Rate 0.500 kg/ha) was 0.0 and the “Herbicidal effect rating, SAGPY” value [9] was 0.0. It also gave a CASOB herbicidal rating ([10]; Rate 0.125 kg/ha) of 0.0, a CASOB herbicidal rating ([10]; Rate 0.250 kg/ha) of 0.0 and a CASOB herbicidal rating ([10]; Rate 0.500 kg/ha) of 0.0. The “Herbicidal effect rating, CYPSE” value [11] was 0.0, the ECHCG herbicidal rating ([12]; Rate 0.125 kg/ha) was 0.0 and the ECHCG herbicidal rating ([12]; Rate 0.250 kg/ha) was 0.0. It also gave an ECHCG herbicidal rating ([12]; Rate 0.500 kg/ha) of 0.0, a CASOB rating ([13]; Rate 0.125 kg/ha) of 0.0 and a CASOB rating ([13]; Rate 0.250 kg/ha) of 0.0. The CASOB rating ([13]; Rate 0.500 kg/ha) was 0.0, the “Herbicidal effect rating, ORYSAT” value [14] was 0.0 and the “Herbicidal effect rating, ECHORC” value [15] was 0.0. It also gave an IPOSS herbicidal rating ([16]; Rate 0.125 kg/ha) of 0.0, an IPOSS herbicidal rating ([16]; Rate 0.250 kg/ha) of 0.0 and an IPOSS herbicidal rating ([16]; Rate 0.500 kg/ha) of 0.0. The ECHCG rating ([17]; Rate 0.125 kg/ha) was 0.0, the ECHCG rating ([17]; Rate 0.250 kg/ha) was 0.0 and the ECHCG rating ([17]; Rate 0.500 kg/ha) was 0.0. It also gave an SETVI herbicidal rating ([18]; Rate 0.125 kg/ha) of 0.0, an SETVI herbicidal rating ([18]; Rate 0.250 kg/ha) of 0.0 and an SETVI herbicidal rating ([18]; Rate 0.500 kg/ha) of 0.0.
